This is an account of results in patent publication US20080200530A1 (priority 2005, published 2008).

The subject of assay [1] is DOI-induced hypolocomotion. Briefly: Attenuation of DOI-induced hypolocomotion in rats. It is filed as in vivo, rat. To be noted: 50 μmol/kg p.o., 60 min before DOI 0.3 mg/kg s.c. The protocol:
In this Example, compounds of the invention, such as Compound 1 and Compound 26, were tested for inverse agonist activity by determining whether these compounds could attenuate DOI-induced hypolocomotion in rats in a novel environment. DOI is a potent 5HT2A/5HT2C receptor agonist that crosses the blood-brain barrier.
Male Sprague-Dawley rats (Harlan, San Diego, Calif.) weighing between 200-300 g were used for all tests. Rats were housed three to four per cage. These rats were naive to experimental testing and drug treatment. Rats were handled one to three days before testing to acclimate them to experimental manipulation. Rats were fasted overnight prior to testing.
(R)-DOI HCl (C11H16INO2HCl) was obtained from Sigma-Aldrich, and was dissolved in 0.9% saline. […]
The “Motor Monitor” (Hamilton-Kinder, Poway, Calif.) was used for all activity measurement. This apparatus recorded rears using infrared photobeams. […]
In determining the effects of compounds of the invention on DOI-induced hypoactivity, animals were first injected with vehicle or the compound of the invention (50 μmol/kg) in their home cages. […] 10 min after DOI administration, animals were placed into the activity apparatus and rearing activity was measured for 10 minutes.
Results (total rears over 10 minutes) were analyzed by t-test. […]

Another assay has as its target T1, 5HT2A receptor (Rattus norvegicus, UniProt P14842).
T1 construct: from tissue; host or cells: Sprague-Dawley rat brain, horizontal cryostat sections (cerebral cortex)
Briefly: 125I-LSD displacement from brain sections, autoradiography, cortex. In kind it is binding, Sprague-Dawley rats. The conditions noted are these: 1 micromolar compound, 1 nanomolar 125I-LSD.

In assay [2] the test system is JC virus infection of human glial cells. The conditions noted are these: Elphick et al., Science (2004); cited from earlier work.
Assay [3] concerns the target T2, endogenous human 5-HT2C receptor (Homo sapiens, UniProt P28335).
T2 sequence (P28335 33-458): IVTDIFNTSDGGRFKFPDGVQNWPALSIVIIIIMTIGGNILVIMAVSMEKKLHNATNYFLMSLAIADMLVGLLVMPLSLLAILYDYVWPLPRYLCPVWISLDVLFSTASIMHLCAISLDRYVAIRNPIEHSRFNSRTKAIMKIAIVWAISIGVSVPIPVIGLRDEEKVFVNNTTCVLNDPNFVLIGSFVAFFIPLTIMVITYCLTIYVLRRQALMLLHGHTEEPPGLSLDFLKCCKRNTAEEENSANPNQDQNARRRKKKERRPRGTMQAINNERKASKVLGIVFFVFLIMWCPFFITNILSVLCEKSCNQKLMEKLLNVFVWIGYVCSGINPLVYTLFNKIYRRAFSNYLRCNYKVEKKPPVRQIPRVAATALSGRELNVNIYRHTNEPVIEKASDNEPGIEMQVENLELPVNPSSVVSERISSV

T1 sequence (P14842 whole entry): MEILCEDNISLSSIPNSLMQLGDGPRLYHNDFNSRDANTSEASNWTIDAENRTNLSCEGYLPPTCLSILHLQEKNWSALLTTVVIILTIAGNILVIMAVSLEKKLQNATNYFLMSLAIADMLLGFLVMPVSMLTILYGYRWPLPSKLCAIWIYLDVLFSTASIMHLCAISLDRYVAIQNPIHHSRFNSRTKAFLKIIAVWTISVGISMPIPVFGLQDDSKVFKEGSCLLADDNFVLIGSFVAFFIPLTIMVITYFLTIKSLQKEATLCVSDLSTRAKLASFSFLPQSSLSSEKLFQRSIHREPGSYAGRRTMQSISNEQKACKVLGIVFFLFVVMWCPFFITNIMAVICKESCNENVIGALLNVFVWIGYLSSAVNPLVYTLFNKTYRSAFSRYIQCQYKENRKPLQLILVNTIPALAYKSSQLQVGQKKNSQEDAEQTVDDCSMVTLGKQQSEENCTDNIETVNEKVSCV

For `COc1ccc(NC(=O)Nc2ccc(Cl)cc2)cc1-c1c(Br)cnn1C` [Compound 1, 1-[3-(4-Bromo-2-methyl-2H-pyrazol-3-yl)-4-methoxy-phenyl]-3-(4-chloro-phenyl)-urea], the “effect on DOI-induced hypolocomotion (total rears over 10 minutes)” value in assay [1] is on record as “attenuated DOI-induced hypolocomotion”.

With `COc1ccc(NC(=O)Nc2ccc(Cl)cc2)cc1-c1c(Cl)cnn1C` [Compound 26, 1-[3-(4-Chloro-2-methyl-2H-pyrazol-3-yl)-4-methoxy-phenyl]-3-(4-chloro-phenyl)-urea], in assay [1], the “effect on DOI-induced hypolocomotion (total rears over 10 minutes)” value is “attenuated DOI-induced hypolocomotion”.

Regarding `COc1ccc(OC(=O)Nc2cccc(-c3c(Br)cnn3C)c2)cc1` [Compound S-1610, [3-(4-Bromo-2-methyl-2H-pyrazol-3-yl)-phenyl]-carbamic acid 4-methoxy-phenyl ester], on 5HT2A receptor, the “displacement of 125I-LSD from the cortex (5HT2A)” value is on record as “selectively displace”.

`Cc1nc2sccn2c(=O)c1CCN1CCC(=C(c2ccc(F)cc2)c2ccc(F)cc2)CC1` [Ritanserin]: the “JC virus infection of human glial cells” value in assay [2] is on record as “inhibited”.

For `O=C(c1ccc(F)cc1)C1CCN(CCn2c(=O)[nH]c3ccccc3c2=O)CC1` [ketanserin], the “JC virus infection of human glial cells” value in assay [2] is on record as “inhibited”.

Take `CN1CCN2c3ccccc3Cc3ccccc3C2C1` (stereo not shown) [mianserin]: the “inhibition of serotonin-stimulated [35S]GTPγS binding” value in assay [3] (30 μM mianserin) is listed as “inhibits this response”. For the same molecule, the “effect on basal constitutive binding of [35S]GTPγS” value in assay [3] (no agonist) is “partial inverse agonist”.
